Data published in patent publication US8299079B2, “Preparations and methods for ameliorating or reducing presbyopia” (priority 2009, dated 2012).
Several values for one entry are separate records, joined by “and”; a condition that tells them apart may be missing. Equal entries are not always repeated.

Experiments:
[1] = system: pupil diameter of patients suffering from presbyopia; assay: Preliminary evaluation: pupil diameter after pilocarpine alone or with brimonidine; format: in vivo, human
Procedure: (§1) The effect of pilocarpine alone or in combination with brimonidine on near visual acuity (VA) for patients suffering from presbyopia was evaluated. Initially, 10 patients were selected for preliminary evaluation. Each patient was administered with one drop of a formulation containing 0.25%, 0.5%, or 1.0% pilocarpine with or without one drop of a formulation containing 0.2% brimonidine. Thus, the following six dosages were initially tested: • 1. 0.25% pilocarpine, • 2. 0.5% pilocarpine, • 3. 1.0% pilocarpine, • 4. 0.25% pilocarpine and 0.2% brimonidine, • 5. 0.5% pilocarpine and 0.2% brimonidine, and • 6. 1.0% pilocarpine and 0.2% brimonidine.

[2] = system: near visual acuity (VA) for patients suffering from presbyopia; assay: Preliminary evaluation: near visual acuity after pilocarpine alone or with brimonidine; format: in vivo, human
Procedure: as §1

Row | SMILES | Pupil ([1]; Pilo alone 0.25%, 1 hr) | Pupil ([1]; Pilo alone 0.25%, 2 hrs) | Pupil ([1]; Pilo alone 0.25%, 4 hrs) | Pupil ([1]; Pilo alone 0.5%, 1 hr) | Pupil ([1]; Pilo alone 0.5%, 2 hrs) | Pupil ([1]; Pilo alone 0.5%, 4 hrs) | Pupil ([1]; Pilo alone 1%, 1 hr) | Pupil ([1]; Pilo alone 1%, 2 hrs) | Pupil ([1]; Pilo alone 1%, 4 hrs) | duration of effect on visual acuity (wear out) ([2]; 1, 2, 4 hrs after administration) | nVA ([2]; Pilo alone 0.25%, 2 hrs) | nVA ([2]; Pilo alone 0.5%, 1 hr) | nVA ([2]; Pilo alone 0.5%, 2 hrs) | nVA ([2]; Pilo alone 0.5%, 4 hrs) | effect on the pupil (potentiation of pilocarpine) ([1]; brimonidine combined with pilocarpine)
1 | CC[C@@H]1C(=O)OC[C@@H]1Cc1cncn1C [Pilo Alone, pilocarpine] | 3 and 3.5 and 2.5 and 3.3 | 4 and 3.5 and 3 | 4 | 2.5 and 3.8 and 3 | 3 and 4 and 2.5 and 3.3 | 3.3 and 4 and 3 and 4.2 | 2.5 and 1.5 and 3 | 3 and 1.5 and 2.5 | 4 and 2.5 and 3 | appears to wear out fairly quickly | 3 J and 5 J and 6 J | 3 J and 6 J and 5 J | 5 J and 3 J | 5 J and 3 J | –
2 | Brc1c(NC2=NCCN2)ccc2nccnc12 [brimonidine] | – | – | – | – | – | – | – | – | – | – | – | – | – | – | potentiates the effect of pilocarpine on the pupil
